The values below come from PMC11164132 (British journal of pharmacology, 2021).

This test concerns the target hTRPV1 (Homo sapiens, UniProt Q8NER1). The format is cell-based.

By EC50 is commonly meant the concentration at which the effect is half-maximal. Read a low EC50 as higher potency in that assay.

SMILES strings stand for the structures.

Chain of hTRPV1 (Q8NER1 whole entry): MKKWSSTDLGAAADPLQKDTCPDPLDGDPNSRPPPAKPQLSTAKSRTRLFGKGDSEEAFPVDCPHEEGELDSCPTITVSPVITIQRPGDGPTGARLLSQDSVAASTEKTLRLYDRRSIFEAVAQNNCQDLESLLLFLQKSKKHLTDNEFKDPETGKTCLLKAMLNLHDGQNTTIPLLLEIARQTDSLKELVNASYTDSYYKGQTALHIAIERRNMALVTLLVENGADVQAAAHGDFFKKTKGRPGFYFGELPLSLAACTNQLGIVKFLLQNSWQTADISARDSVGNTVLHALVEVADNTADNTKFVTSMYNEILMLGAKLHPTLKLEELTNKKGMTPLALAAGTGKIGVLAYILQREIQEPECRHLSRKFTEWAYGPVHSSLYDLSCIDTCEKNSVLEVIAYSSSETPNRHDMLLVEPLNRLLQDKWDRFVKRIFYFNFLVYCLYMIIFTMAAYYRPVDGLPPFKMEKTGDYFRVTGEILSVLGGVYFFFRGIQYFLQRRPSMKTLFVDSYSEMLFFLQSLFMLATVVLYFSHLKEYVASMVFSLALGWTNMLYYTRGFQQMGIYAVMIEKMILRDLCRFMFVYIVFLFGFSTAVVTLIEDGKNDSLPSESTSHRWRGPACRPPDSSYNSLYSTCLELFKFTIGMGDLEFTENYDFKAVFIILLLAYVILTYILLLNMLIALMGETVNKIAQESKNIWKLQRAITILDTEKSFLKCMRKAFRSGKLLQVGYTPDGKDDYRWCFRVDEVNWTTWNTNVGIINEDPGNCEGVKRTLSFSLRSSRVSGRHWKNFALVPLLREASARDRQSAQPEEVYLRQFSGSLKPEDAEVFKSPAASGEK

Turning to `CCCCCCCCCCCC(=O)NCCO` [compound 3, lauric acid monoethanolamide], the half-maximal effective concentration (EC50) turned out to be 3.2 µM. That is a single-digit micromolar value.
